# Patent US5804576A, “Derivatives of 5-androsten-17-ones and 5-androstan-17-ones” (Research Corporation Technologies, Inc., priority 1986, dated 1998)
# What was measured:
# [1] = tested on: (3H) DMBA binding to skin DNA; test: [3H]DMBA binding to mouse skin DNA, topical steroid; type: in vivo, mouse (A/J)
# Excerpt: Skin tumors can be induced in the mouse either by weekly application of a carcinogen such as […] (DMBA), or alternatively,by a single sub-threshold dose of the carcinogen followed by twice weekly applications of the tumor promoter tetradecanoylphorbol-13-acetate (TPA). In order to exert its carcinogenic effect, DMBA must be metabolized by an NADPH-dependent mixed-function oxidase to chemically reactive intermediates which bind covalently to DNA and produce mutations leading to malignant transformation. […] This effect of DHEA very probably is a result of the inhibition of G6PDH and lowering of the intracellular pool of NADPH, which is a co-factor for the mixed-function oxidase activation of DMBA.
# Binding of [^3 H]DMBA to mouse skin DNA was determined as described in Pashko, L. L., and Schwartz, A. G. (1983), Effect of food restriction, dehydroepiandrosterone, or obesity on the binding of ^3 H-7,12-dimethylbenz(a)-anthracene to mouse skin DNA, J. Gerontol., 38, 8-12. Values are mean±SD for 3 individual determinations, with pooled tissue from 2 mice used for each determination. DHEA or testosterone (400 ug in 0.2 ml acetone) was applied to the skin one hour before [^3 H]DMBA. The mean weight of the food restricted mice was 18.5±1.0 gm, n=6, of the ad libitum fed, 27.4±1.0 gm, n=6, of the ad libitum fed treated with DHEA, 28.2±0.9 gm, n=6, and of the ad libitum fed treated with testosterone, 28.3±0.9 gm, n=6, following two weeks of feeding. The average food consumed was, in gm/mouse/day, 2.2, 3.8, 3.8 and 4.0 for the food restricted, ad libitum fed, ad libitum fed plus DHEA, and ad libitum fed plus testosterone groups, respectively.
# rat uterus = test: Uterotrophic test, subcutaneous (Compound 2 vs. DHEA); type: in vivo; settings: n = 4 or 5
# Protocol: Twenty-two day old rats were obtained from Charles River Laboratories. Animals were used at 29 days of age. Test steroids were suspended by homogenization in sesame oil. Rats were orally intubated at 1-2 P.M. for 3 days with a test steroid in sesame oil or with sesame oil alone (control). On the 4th day the animals were killed and the uteri were removed and weighed.
# Compound 2 vs. DHEA. Compounds Administered by Subcutaneous Injection
# Steroids were dissolved in 2 ml ethanol and brought up to 5 ml volume with propylene glycol. Concentrations were such that 1 μl/gm body weight delivered the indicated dose.
# [2] = tested on: mammalian glucose-6-phosphate dehydrogenase (G6PDH); settings: cited from earlier work
# [3] = tested on: breast, lung, and colon tumors; settings: approximately 400 mg/kg daily, long-term; cited from earlier work
# [4] = tested on: 3H-thymidine incorporation in mouse epidermis; settings: in vivo; cited from earlier work
# [5] = tested on: New Zealand Black (NZB) mice; settings: long-term treatment; cited from earlier work
# [6] = tested on: rat uterus; mouse seminal vesicle plus prostate; settings: prolonged administration; cited from earlier work
compound,measurement,setting,value
"C[C@]12CC[C@H](O)CC1=CC[C@@H]1[C@@H]2CC[C@]2(C)C(=O)CC[C@@H]12 [DHEA, 3β-Hydroxy-5-androst-en-17-one, reference compound]",SPECIFIC ACTIVITY ([3H]DMBA bound to skin DNA),"[1]; 400 ug topical one hour before DMBA, ad libitum fed, Table 4",66 ± 13 cpm/ug DNA
same,rate of binding of topically applied 3H-DMBA to skin DNA (in words),"[1]; topical, A/J mouse",inhibits the rate of binding of topically applied ^3 H-DMBA to A/J mouse skin DNA
same,Mean Uterine Weight,rat uterus; 10 mg/kg s.c.,152 ± 17 Mgs
same,Mean Uterine Weight,rat uterus; 60 mg/kg s.c.,290 ± 72 Mgs
same,inhibition of mammalian G6PDH (in words),[2],potent non-competitive inhibitor of mammalian glucose-6-phosphate dehydrogenase
same,tumor development (in words),[3],"inhibit the development of breast, lung, and colon tumors"
same,3H-thymidine incorporation in mouse epidermis (in words),[4],antagonizes the capacity of the tumor promoter
same,rate of development of the autoimmune anemia (in words),[5],significantly inhibits the rate of development of the autoimmune anemia
same,estrogenic effect (in words),[6],evidence of an estrogenic effect after prolonged administration
